Results on 27 compounds are retold here after patent US10434112B2, “Use of agonists of formyl peptide receptor 2 for treating dermatological diseases” (Allergan, Inc., priority 2013, dated 2019).

In the first test the target is human FPR2 receptor (Homo sapiens (Human), UniProt P25090). Nature of the test: FLIPR Ca+2 response in HEK-Gα16 cells stably expressing the human FPR2 receptor. Type of test: cell-based. Details: FPR2 (% eff): unit not given here. Conditions: Table 4. Summed up: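 HEK-Gα16 cells stably expressing human FPR2, loaded with 2 μM Fluo-4 in HBSS/20 mM HEPES for 40 min at 37° C., then washed. Ligands added in HBSS/Hepes and Ca+2 responses recorded on FLIPR in relative fluorescence units.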
Sequence of human FPR2 receptor (P25090 whole entry): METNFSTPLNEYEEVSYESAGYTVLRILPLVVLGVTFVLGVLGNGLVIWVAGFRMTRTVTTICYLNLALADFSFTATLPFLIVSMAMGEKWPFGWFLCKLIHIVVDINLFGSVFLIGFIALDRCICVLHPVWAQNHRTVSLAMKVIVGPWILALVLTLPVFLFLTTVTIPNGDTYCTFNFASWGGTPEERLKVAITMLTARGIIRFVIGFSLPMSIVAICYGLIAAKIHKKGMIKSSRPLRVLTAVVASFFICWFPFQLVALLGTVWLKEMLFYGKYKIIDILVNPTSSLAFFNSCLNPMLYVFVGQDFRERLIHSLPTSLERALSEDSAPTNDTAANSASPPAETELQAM
By EC50 is commonly meant the concentration needed to bring the measured effect to its halfway point. Take `O=C(Nc1ccc(Br)cc1F)N[C@@H](Cc1ccccc1)C(=O)NCCO` [Compound 71, (2S)-2-{[(4-bromo-2-fluorophenyl)carbamoyl]amino}-N-(2-hydroxyethyl)-3-phenylpropanamide]: the concentration for a half-maximal effect (EC50) was found to be 15.6 nM.
In turn, `CC(C)C[C@H](NC(=O)Nc1ccc(Br)cc1)C(=O)NCC(N)=O` [Compound 77, (2S)-N-(2-amino-2-oxoethyl)-2-{[(4-bromophenyl)carbamoyl]amino}-4-methylpentanamide] registered an EC50 of 1.1 nM.
`CC1(CCc2ccccc2F)NC(=O)N(NC(=O)Nc2ccc(Br)cc2)C1=O` (stereo not drawn) [Compound 80, 1-(4-bromophenyl)-3-{4-[2-(2-fluorophenyl)ethyl]-4-methyl-2,5-dioxoimidazolidin-1-yl}urea] returned a concentration giving a half-maximal response (EC50) of 14.3 nM.

The test is the same for the next values; noted with them: Table 4; value in brackets, given mostly as fraction.
`CCC1(CCc2ccccc2)NC(=O)N(NC(=O)Nc2ccc(Br)cc2F)C1=O` (stereo not drawn) [Compound 69, 1-(4-bromo-2-fluorophenyl)-3-[4-ethyl-2,5-dioxo-4-(2-phenylethyl)imidazolidin-1-yl]urea]: the “FPR2 (% eff)” value came to 0.91.
As for `CCC[C@H](NC(=O)Nc1ccc(Br)cc1)C(=O)O` [Compound 70, (2S)-2-{[(4-bromophenyl)carbamoyl]amino}pentanoic acid], the “FPR2 (% eff)” value was 1.0.
Same read-out and setting: as for `O=C(Nc1ccc(Br)cc1F)N[C@@H](Cc1ccccc1)C(=O)NCCO` [Compound 71, (2S)-2-{[(4-bromo-2-fluorophenyl)carbamoyl]amino}-N-(2-hydroxyethyl)-3-phenylpropanamide], the figure is 0.98.
Regarding `CCC[C@H](NC(=O)Nc1ccc(Br)cc1)C(=O)NCC(=O)OC` [Compound 72, methyl {[(2S)-2-{[(4-bromophenyl)carbamoyl]amino}pentanoyl]amino}acetate], the “FPR2 (% eff)” value amounted to 0.86.
On the same count and under the same terms, as for `CCC[C@H](NC(=O)Nc1ccc(Br)cc1)C(=O)NCC(=O)OC(C)C` [Compound 73, propan-2-yl {[(2S)-2-{[(4-bromophenyl)carbamoyl]amino}pentanoyl]amino}acetate], the figure is 1.0.
Take `CCC[C@H](NC(=O)Nc1ccc(Br)cc1F)C(=O)NCC(=O)O` [Compound 74, {[(2S)-2-{[(4-bromo-2-fluorophenyl)carbamoyl]amino}pentanoyl]amino}acetic acid]: the “FPR2 (% eff)” value turned out to be 0.91.
As to `CC(C)C[C@H](NC(=O)Nc1ccc(Br)cc1)C(=O)NCCO` [Compound 75, (2S)-2-{[(4-bromophenyl)carbamoyl]amino}-N-(2-hydroxyethyl)-4-methylpentanamide], the “FPR2 (% eff)” value is listed as 0.76.
With `CC1(CCc2ccco2)NC(=O)N(NC(=O)Nc2ccc(Br)cc2)C1=O` (stereo not drawn) [Compound 76, 1-(4-bromophenyl)-3-{4-[2-(furan-2-yl)ethyl]-4-methyl-2,5-dioxoimidazolidin-1-yl}urea], the “FPR2 (% eff)” value is 0.99.
Consider `CC(C)C[C@H](NC(=O)Nc1ccc(Br)cc1)C(=O)NCC(N)=O` [Compound 77, (2S)-N-(2-amino-2-oxoethyl)-2-{[(4-bromophenyl)carbamoyl]amino}-4-methylpentanamide], for which the “FPR2 (% eff)” value came out at 1.0.
The same measure, in the same setting: the figure for `CC(=O)CNC(=O)[C@H](CC(C)C)NC(=O)Nc1ccc(Br)cc1` [Compound 78, (2S)-2-{[(4-bromophenyl)carbamoyl]amino}-4-methyl-N-(2-oxopropyl)pentanamide] is 0.82; for `CCC[C@H](NC(=O)Nc1ccc(Br)cc1)C(=O)NCC(N)=O` [Compound 79, (2S)-N-(2-amino-2-oxoethyl)-2-{[(4-bromophenyl)carbamoyl]amino}pentanamide] it is 0.97; for `CC1(CCc2ccccc2F)NC(=O)N(NC(=O)Nc2ccc(Br)cc2)C1=O` (stereo not drawn) [Compound 80, 1-(4-bromophenyl)-3-{4-[2-(2-fluorophenyl)ethyl]-4-methyl-2,5-dioxoimidazolidin-1-yl}urea] it is 99.
Regarding `CCC[C@H](NC(=O)Nc1ccc(Br)cc1F)C(=O)NCC(N)=O` [Compound 81, (2S)-N-(2-amino-2-oxoethyl)-2-{[(4-bromo-2-fluorophenyl)carbamoyl]amino} pentanamide], the “FPR2 (% eff)” value is 0.96.
On to `CC1(CCc2ccc(F)cc2)NC(=O)N(NC(=O)Nc2ccc(Br)cc2)C1=O` (stereo not drawn) [Compound 82, 1-(4-bromophenyl)-3-{4-[2-(4-fluorophenyl)ethyl]-4-methyl-2,5-dioxoimidazolidin-1-yl}urea], for which the “FPR2 (% eff)” value amounted to 1.0.
On to `CC1(CCc2cccc(F)c2)NC(=O)N(NC(=O)Nc2ccc(Br)cc2)C1=O` (stereo not drawn) [Compound 83, 1-(4-bromophenyl)-3-{4-[2-(3-fluorophenyl)ethyl]-4-methyl-2,5-dioxoimidazolidin-1-yl}urea], for which the “FPR2 (% eff)” value is given as 1.0.
On to `CC(C)C[C@H](NC(=O)Nc1ccc(Br)cc1F)C(=O)NCC(N)=O` [Compound 84, (2S)-N-(2-amino-2-oxoethyl)-2-{[(4-bromo-2-fluorophenyl)carbamoyl]amino}-4-methylpentanamide], for which the “FPR2 (% eff)” value came out at 0.95.
`CC(=O)CNC(=O)[C@H](CC(C)C)NC(=O)Nc1ccc(Br)cc1F` [Compound 85, (2S)-2-{[(4-bromo-2-fluorophenyl)carbamoyl]amino}-4-methyl-N-(2-oxopropyl)pentanamide]: the “FPR2 (% eff)” value is listed as 0.99.
In the case of `CC1(CCc2ccc(O)cc2)NC(=O)N(NC(=O)Nc2ccc(Br)cc2)C1=O` (stereo not drawn) [Compound 86, 1-(4-bromophenyl)-3-{4-[2-(4-hydroxyphenyl)ethyl]-4-methyl-2,5-dioxoimidazolidin-1-yl}urea], the “FPR2 (% eff)” value is 1.0.
Turning to `CC(C)C[C@H](NC(=O)Nc1ccc(Br)cc1F)C(=O)N[C@@H](C)C(=O)O` [Compound 87, (2S)-2-{[(2S)-2-{[(4-bromo-2-fluorophenyl)carbamoyl]amino}-4-methylpentanoyl]amino}propanoic acid], the “FPR2 (% eff)” value is 0.95.
Still for that read-out and setting: as for `CC1(CCc2cccs2)NC(=O)N(NC(=O)Nc2ccc(Br)cc2)C1=O` (stereo not drawn) [Compound 88, 1-(4-bromophenyl)-3-{4-methyl-2,5-dioxo-4-[2-(thiophen-2-yl)ethyl]imidazolidin-1-yl}urea], the figure is 0.94; as for `CC1(CCc2ccc(O)cc2)NC(=O)N(NC(=O)Nc2ccc(Br)cc2F)C1=O` (stereo not drawn) [Compound 89, 1-(4-bromo-2-fluorophenyl)-3-{4-[2-(4-hydroxyphenyl)ethyl]-4-methyl-2,5-dioxoimidazolidin-1-yl}urea], 0.85.
`CC(C)C[C@H](NC(=O)Nc1ccc(Br)cc1)C(=O)N[C@H](C(=O)O)C(C)C` [Compound 91, (2S)-2-{[(2S)-2-{[(4-bromophenyl)carbamoyl]amino}-4-methylpentanoyl]amino}-3-methylbutanoic acid]: the “FPR2 (% eff)” value is on record as 0.97.
Consider `CC(C)C[C@H](NC(=O)Nc1ccc(Br)cc1)C(=O)N[C@H](C(N)=O)C(C)C` [Compound 92, (2S)-N-[(2S)-1-amino-3-methyl-1-oxobutan-2-yl]-2-{[(4-bromophenyl)carbamoyl]amino}-4-methylpentanamide], for which the “FPR2 (% eff)” value is 1.0.
For the compound `CC(C)C[C@H](NC(=O)Nc1ccc(Br)cc1)C(=O)NCC(C)(C)O` [Compound 93, (2S)-2-{[(4-bromophenyl)carbamoyl]amino}-N-(2-hydroxy-2-methylpropyl)-4-methylpentanamide], the “FPR2 (% eff)” value is 0.93.
For the compound `CC(C)C[C@H](NC(=O)Nc1ccc(Br)cc1)C(=O)NC(CO)CO` [Compound 94, (2S)-2-{[(4-bromophenyl)carbamoyl]amino}-N-(1,3-dihydroxypropan-2-yl)-4-methylpentanamide], the “FPR2 (% eff)” value came out at 0.96.
Take `CC(C)C[C@H](NC(=O)Nc1ccc(Br)cc1)C(=O)N[C@H](C)CO` [Compound 96, (2S)-2-{[(4-bromophenyl)carbamoyl]amino}-N-[(2R)-1-hydroxypropan-2-yl]-4-methylpentanamide]: the “FPR2 (% eff)” value turned out to be 1.0.
With `Cc1ccc(CCC2(C)NC(=O)N(NC(=O)Nc3ccc(Br)cc3)C2=O)o1` (stereo not drawn) [Compound 97, 1-(4-bromophenyl)-3-{4-methyl-4-[2-(5-methylfuran-2-yl)ethyl]-2,5-dioxoimidazolidin-1-yl}urea], the “FPR2 (% eff)” value turned out to be 0.95.
